Patent publication US20100292210A1, “Novel Compounds for A-Beta-Related Pathologies” (AstraZeneca AB, priority 2009, published 2010)

Test system: Aβ42 release
Test: Aβ42 release from HEK cells stably expressing APPswe, Meso Scale Discovery electrochemiluminescence assay
Assay type: cell-based
Conditions: Homo sapiens, HEK293; HEK cell line stably expressing APPswe; 4-6 h incubation with test compound; Aβ42 secreted to cell medium; read-out: pIC50 values of Aβ42 release (converted)
Description: The level of activity of the compounds on Aβ formation was tested using the following method:
Compounds were diluted in 100% DMSO and stored at […] prior to use. Human Embryonic Kidney (HEK) cell line stably expressing APP with the Swedish mutation (APPswe) were cultured using Dulbecco's Modified Eagles medium (DMEM) supplied with […] glucose, Na-pyruvate and GlutaMAX with 10% FBS, 100 U/ml penicillin-streptomycin (PEST) respectively, 1×non-essential amino acids (NEAA), […], 100 μg/ml Zeocine. Cells at about 80% confluence were washed with PBS, detached from culture flasks using 1×Trypsin/EDTA diluted in PBS, re-suspended in cell media and plated in 384-well poly-d-lysine coated cell culture plates at about 10000-15000 cells/well, in 25 μL cell media. Optionally, cryo-preserved cells (frozen and stored at −140° C. in 90% cell media and 10% DMSO) were thawed, washed and plated as above. Next the cells were incubated for 15-24 h at 37° C. and 5% CO2, after which cell medium was changed. Fresh medium containing test compound diluted ×200 from prepared compound plate was added to the cells before further incubation for 4-6 hours at 37° C. and 5% CO2. After incubation with test compound the amount of Aβ peptides, including Aβ42, Aβ40, Aβ39, Aβ38 and Aβ37, secreted to cell medium was analyzed using the electrochemiluminescence assay technology from Meso Scale Discovery Technology, in combination with specific antibodies raised against the different Aβ peptides. Potential cytotoxic effects of the compounds were usually assayed by measuring the ATP content (ViaLight) from cell lysate.

IC50 [nM]	Compound
> 3160	Cc1cccc(C2CN(C)Cc3ccc(Nc4ccc(-c5cnn(C)c5)nc4)nc3O2)n1 (centres unmarked) [Example 54, 4-Methyl-N-(6-(1-methyl-1H-pyrazol-4-yl)pyridin-3-yl)-2-(6-methylpyridin-2-yl)-2,3,4,5-tetrahydropyrido[3,2-f][1,4]oxazepin-8-amine]
79.4	COc1cc(Nc2cnc3c(n2)O[C@H](c2ccccc2)CN(C)C3)ccc1-n1cnc(C)c1 [Example 39, (R)—N-(3-Methoxy-4-(4-methyl-1H-imidazol-1-yl)phenyl)-8-methyl-6-phenyl-6,7,8,9-tetrahydropyrazino[2,3-f][1,4]oxazepin-3-amine]
5010	Cc1nccn1-c1ccc(Nc2ccc3c(n2)N(C2CCCC2)CCN(C)C3=O)cc1 [Example 25, 1-cyclopentyl-4-methyl-8-(4-(2-methyl-1H-imidazol-1-yl)phenylamino)-3,4-dihydro-1H-pyrido[2,3-e][1,4]diazepin-5(2H)-one]
158	COc1cc(Nc2ccc3c(n2)OC(c2ccccn2)CN(CC#N)C3)ccc1-n1cnc(C)c1 (centres unmarked) [Example 36, 2-(8-(3-Methoxy-4-(4-methyl-1H-imidazol-1-yl)phenylamino)-2-(pyridin-2-yl)-2,3-dihydropyrido[3,2-f][1,4]oxazepin-4(5H)-yl)acetonitrile]
200	COc1cc(Nc2ccc3c(n2)OC(COC(C)C)CN(C)C3)ccc1-n1cnc(C)c1 (centres unmarked) [Example 35, 2-(Isopropoxymethyl)-N-(3-methoxy-4-(4-methyl-1H-imidazol-1-yl)phenyl)-4-methyl-2,3,4,5-tetrahydropyrido[3,2-f][1,4]oxazepin-8-amine]
100	COc1cc(Nc2ccc3c(n2)OC(C2CC2)CN(C)C3)ccc1-n1cnc(C)c1 (centres unmarked) [Example 49, 2-Cyclopropyl-N-(3-methoxy-4-(4-methyl-1H-imidazol-1-yl)phenyl)-4-methyl-2,3,4,5-tetrahydropyrido[3,2-f][1,4]oxazepin-8-amine]
79.4	COc1cc(Nc2ccc3c(n2)OC(c2ccccc2)CN(C(C)=O)C3)ccc1-n1cnc(C)c1 (centres unmarked) [Example 17, 1-(8-(3-methoxy-4-(4-methyl-1H-imidazol-1-yl)phenylamino)-2-phenyl-2,3-dihydropyrido[3,2-f][1,4]oxazepin-4(5H)-yl)ethanone]
31.6	COc1cc(Nc2ccc3c(n2)O[C@H](c2ccccc2)CN(CCO)C3)cnc1-n1cnc(C)c1 [Example 43, (R)-2-(8-(5-methoxy-6-(4-methyl-1H-imidazol-1-yl)pyridin-3-ylamino)-2-phenyl-2,3-dihydropyrido[3,2-f][1,4]oxazepin-4(5H)-yl)ethanol]
7.94	COc1nc(Nc2ccc3c(n2)O[C@H](c2ccccc2)CN(C)C3)ccc1-c1cnn(C)c1 [Example 50, (R)—N-(6-Methoxy-5-(1-methyl-1H-pyrazol-4-yl)pyridin-2-yl)-4-methyl-2-phenyl-2,3,4,5-tetrahydropyrido[3,2-f][1,4]oxazepin-8-amine]
7940	Cc1cc(C2CN(CC#N)Cc3ccc(Nc4ccc(-n5ccnc5C)cc4)nc3O2)n(C)n1 (centres unmarked) [Example 27, 2-(2-(1,3-Dimethyl-1H-pyrazol-5-yl)-8-(4-(2-methyl-1H-imidazol-1-yl)phenylamino)-2,3-dihydropyrido[3,2-f][1,4]oxazepin-4(5H)-yl)acetonitrile]
1000	CN1CC(c2ccccc2)Oc2nc(Nc3ccc(-n4ccnc4)cc3)ccc2C1=O (centres unmarked) [Example 5, 8-(4-(1H-imidazol-1-yl)phenylamino)-4-methyl-2-phenyl-3,4-dihydropyrido[3,2-f][1,4]oxazepin-5(2H)-one]
31.6	COc1cc(Nc2ccc3c(n2)O[C@H](c2ccccc2)CNC3)ccc1-n1cnc(C)c1 [Example 55, (R)—N-(3-Methoxy-4-(4-methyl-1H-imidazol-1-yl)phenyl)-2-phenyl-2,3,4,5-tetrahydropyrido[3,2-f][1,4]oxazepin-8-amine]
398	COc1cc(Nc2ccc3c(n2)OC(c2cccc(C)n2)CN(C)C3)ccc1-n1cnc(C)n1 (centres unmarked) [Example 52, N-(3-Methoxy-4-(3-methyl-1H-1,2,4-triazol-1-yl)phenyl)-4-methyl-2-(6-methylpyridin-2-yl)-2,3,4,5-tetrahydropyrido[3,2-f][1,4]oxazepin-8-amine]
25.1	COc1cc(Nc2ccc3c(n2)OC(c2ccccc2)CN(CCO)C3)ccc1-n1cnc(C)c1 (centres unmarked) [Example 46, 2-(8-(3-Methoxy-4-(4-methyl-1H-imidazol-1-yl)phenylamino)-2-phenyl-2,3-dihydropyrido[3,2-f][1,4]oxazepin-4(5H)-yl)ethanol]
20	COc1cc(Nc2ccc3c(n2)OC(c2ccccc2)CN(CC#N)C3)ccc1-n1cnc(C)c1 (centres unmarked) [Example 14, 2-(8-(3-methoxy-4-(4-methyl-1H-imidazol-1-yl)phenylamino)-2-phenyl-2,3-dihydropyrido[3,2-f][1,4]oxazepin-4(5H)-yl)acetonitrile]
7.94	COc1nc(Nc2ccc3c(n2)O[C@H](c2ccccc2)CN(C)C3)ccc1-n1cnc(C)c1 [Example 9, (R)—N-(6-methoxy-5-(4-methyl-1H-imidazol-1-yl)pyridin-2-yl)-4-methyl-2-phenyl-2,3,4,5-tetrahydropyrido[3,2-f][1,4]oxazepin-8-amine]
100	Cc1ncn(-c2ccc(Nc3ccc4c(n3)O[C@H](c3ccccc3)CN(C)C4)cc2)n1 [Example 48, (R)-4-Methyl-N-(4-(3-methyl-1H-1,2,4-triazol-1-yl)phenyl)-2-phenyl-2,3,4,5-tetrahydropyrido[3,2-f][1,4]oxazepin-8-amine]
12.6	COc1cc(Nc2ccc3c(n2)O[C@H](c2ccccc2)CN(C)C3)ccc1-n1cnc(C)c1 [Example 10, (R)—N-(3-methoxy-4-(4-methyl-1H-imidazol-1-yl)phenyl)-4-methyl-2-phenyl-2,3,4,5-tetrahydropyrido[3,2-f][1,4]oxazepin-8-amine]
25.1	COc1cc(Nc2ccc3c(n2)O[C@H](c2ccccc2)CN(C2CC2)C3)ccc1-n1cnc(C)n1 [Example 45, (R)-4-Cyclopropyl-N-(3-methoxy-4-(3-methyl-1H-1,2,4-triazol-1-yl)phenyl)-2-phenyl-2,3,4,5-tetrahydropyrido[3,2-f][1,4]oxazepin-8-amine]
794	Cc1nccn1-c1ccc(Nc2ccc3c(n2)OC(c2ccccc2)CN(CCO)C3=O)cc1 (centres unmarked) [Example 24, 4-(2-hydroxyethyl)-8-(4-(2-methyl-1H-imidazol-1-yl)phenylamino)-2-phenyl-3,4-dihydropyrido[3,2-f][1,4]oxazepin-5(2H)-one]
501	OCCN1Cc2ccc(Nc3ccc(-n4cncn4)c(Cl)c3)nc2O[C@H](c2ccccc2)C1 [Example 32, (R)-2-(8-(3-Chloro-4-(1H-1,2,4-triazol-1-yl)phenylamino)-2-phenyl-2,3-dihydropyrido[3,2-f][1,4]oxazepin-4(5H)-yl)ethanol]
200	COc1cc(Nc2ccc3c(n2)OC(c2ccccc2)CN(CCO)C3=O)ccc1-n1cnc(C)c1 (centres unmarked) [Example 20, 4-(2-Hydroxyethyl)-8-(3-methoxy-4-(4-methyl-1H-imidazol-1-yl)phenylamino)-2-phenyl-3,4-dihydropyrido[3,2-f][1,4]oxazepin-5(2H)-one]
79.4	Cc1cn(-c2ccc(Nc3ccc4c(n3)OC(c3ccccc3)CN(C)C4)cc2F)cn1 (centres unmarked) [Example 16, N-(3-fluoro-4-(4-methyl-1H-imidazol-1-yl)phenyl)-4-methyl-2-phenyl-2,3,4,5-tetrahydropyrido[3,2-f][1,4]oxazepin-8-amine]
